According to patent publication US8940766B2, “Methods for preventing and/or treating lysosomal storage disorders” (Amicus Therapeutics, Inc., priority 2009, dated 2015):
Where “and” joins values, the source holds several entries; their conditions need not be identical. Identical values can stand only once. Blank lines part the entries; values can stand above or below the compound they belong to.

What was measured:
[1] = Compound concentration in brain, spleen and plasma samples of GCase enhancement study; type: in vivo, mice (C57BL/6); settings: nine doses; for Concentration: 24 hours after last dose
Method: (§1) The ability of orally administered test compounds (the hydrochloride salt form of Compound A and Compound B) to elevate GCase levels as compared to reference compound, IFG-tartrate, was assessed in mice. […] Seven animals were used per dose. The dosing solutions were prepared in water. Compounds were administered over 2 weeks as follows: week 1, Mon-Fri (On), Sat-Sun (Off); week 2, Mon-Thu (On); necropsy on Friday. Thus, a total of 9 doses (dosing solutions prepared fresh every day) were given to each mouse, with a 24-hour washout between the last dose and necropsy.
(§2) Plasma was collected by spinning blood at 2700 g for 10 minutes at 4° C. Liver, spleen, lung, and brain tissues were removed, washed in cold PBS, blotted dry, flash frozen on dry ice, and stored at −80° C. until analysis. GCase levels were measured by homogenizing approximately 50 mg tissue in 500 μL McIlvane (MI) buffer (100 mM sodium citrate, 200 mM sodium phosphate dibasic, 0.25% sodium taurocholate, and 0.1% Triton X-100, pH 5.2) at pH 5.2 for 3-5 seconds on ice with a micro homogenizer. Homogenates were then incubated at room temperature without and with 2.5 mM conduritol-B-epoxide (CBE) for 30 min. Finally, 3.7 mM 4-methylumbeliferryl-β-glucoside (4-MUG) substrate was added and incubated at 37° C. for 60 min. Reactions were stopped by addition of 0.4 M glycine, pH 10.6. Fluorescence was measured on a plate reader for 1 sec/well using 355 nm excitation and 460 nm emission. Total protein was determined in lysates using the MicroBCA kit according to the manufacturer's instructions. A 4-methylumbelliferone (4-MU) standard curve ranging from 1.0 nM to 50 μM was run in parallel for conversion of raw fluorescence data to absolute GCase activity (in the presence and absence of CBE) and expressed as nanomoles of 4-MU released per milligram of protein per hour (nmol/mg protein/hr). GCase levels and protein levels were calculated using Microsoft Excel (Redmond, Wash.) and GraphPad Prism version 4.02.

GCase [2] = molecular target: T1, GCase (Mus musculus, UniProt P17439); experiment: GCase enhancement in tissues of orally dosed mice; type: in vivo, mice (C57BL/6); settings: for GCase increase: nine doses over 2 weeks, 24-hour washout
T1 construct: Liver, spleen, lung, and brain tissues were removed; from tissue; host or cells: brain, spleen, liver, lung of C57BL/6 mice
T1 sequence (P17439 20-515): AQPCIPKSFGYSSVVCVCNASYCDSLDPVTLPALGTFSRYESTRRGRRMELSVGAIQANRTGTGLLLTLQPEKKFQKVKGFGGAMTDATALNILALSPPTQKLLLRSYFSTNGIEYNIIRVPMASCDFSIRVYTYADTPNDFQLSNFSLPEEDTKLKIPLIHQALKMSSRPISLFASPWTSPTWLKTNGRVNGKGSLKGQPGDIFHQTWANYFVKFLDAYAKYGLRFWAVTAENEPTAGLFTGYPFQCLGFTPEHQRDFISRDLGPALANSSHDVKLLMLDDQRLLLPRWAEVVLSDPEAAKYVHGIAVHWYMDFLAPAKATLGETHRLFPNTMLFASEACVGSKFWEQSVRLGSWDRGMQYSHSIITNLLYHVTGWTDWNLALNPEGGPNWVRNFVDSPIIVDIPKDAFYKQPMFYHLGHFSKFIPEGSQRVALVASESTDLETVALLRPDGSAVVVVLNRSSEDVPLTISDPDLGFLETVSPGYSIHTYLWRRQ
Method: as §1, §2

GCase [3] = molecular target: T2, GCase (Homo sapiens, UniProt P04062); experiment: Concentration-dependent increase in GCase activity (EC50, Emax); type: cell-based; settings: result in words
T2 sequence (P04062 40-536): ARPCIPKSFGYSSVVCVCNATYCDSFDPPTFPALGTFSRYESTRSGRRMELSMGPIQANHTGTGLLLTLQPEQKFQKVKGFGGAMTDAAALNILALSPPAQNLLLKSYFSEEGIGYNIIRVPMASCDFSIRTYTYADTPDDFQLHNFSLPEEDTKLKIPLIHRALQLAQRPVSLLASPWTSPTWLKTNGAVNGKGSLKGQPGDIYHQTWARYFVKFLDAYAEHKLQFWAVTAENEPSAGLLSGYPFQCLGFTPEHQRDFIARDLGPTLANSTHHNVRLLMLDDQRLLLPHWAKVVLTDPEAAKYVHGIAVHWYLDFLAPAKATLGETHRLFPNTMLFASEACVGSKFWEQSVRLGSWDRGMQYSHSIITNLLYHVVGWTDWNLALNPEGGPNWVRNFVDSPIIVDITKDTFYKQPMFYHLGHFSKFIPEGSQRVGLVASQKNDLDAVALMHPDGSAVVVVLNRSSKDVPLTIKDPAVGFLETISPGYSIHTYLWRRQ

lysosomal GCase = molecular target: T3, lysosomal GCase (Homo sapiens, UniProt P04062); experiment: In situ washout assay in fibroblasts (recovery of lysosomal GCase activity after compound removal); type: cell-based; settings: fibroblasts treated at IC90 for 16-24 hours, then drug-free medium; single exponential fit
T3 construct: assayed in situ using fibroblasts established from a normal subject; endogenous in cells; host or cells: fibroblasts from a normal subject
T3 sequence (P04062 40-536): T2 sequence (P04062 40-536)
Method: Cells seeded in 48-well plates were incubated with the indicated concentrations of compound for 16-24 hours. For the dose-response assays, cells were incubated with the in situ substrate 5-(pentafluorobenzoylamino)fluorescein di-β-D-glucopyranoside (PFBFDβGlu) for 1 hour and subsequently lysed to determine the extent of substrate hydrolysis in the presence of compound. […] Inhibition was determined as the ratio of activity in the presence of compound to that in the absence of compound. […] Cells were washed extensively and incubated in drug-free medium to allow net compound efflux from cells. Cells were then tested for lysosomal GCase activity at 2 hour intervals over a total period of 8 hours following compound removal. The increase in activity over time was fitted with a single exponential function to determine the compound's washout time.

[4] = Blood brain barrier penetration after oral administration to mice; type: in vivo, mice (C57BL/6); settings: single 30 mg/kg (free base equivalent) p.o. dose, FIGS. 1A-C
Method: For this purpose, 8-week old wild-type male mice (C57BL/6) were administered a single 30 mg/kg (free base equivalent) p.o. dose of reference or test compound by gavage (n=3 mice per time point). Dosing solutions were prepared in water. After dosing, mice were euthanized with CO2 at the following time points: 0-, 0.5-, 1-, and 4-hour post-dose. […] Similarly, brains were collected from each mouse. Plasma was derived by spinning whole blood at 2700 g for 10 minutes at 4° C. followed by storage on dry ice. Whole brains were washed in cold PBS to remove contaminating blood, blotted dry, flash frozen on dry ice, and ultimately stored at −80° C. until analysis. To prepare brain samples for analysis, 50-100 mg of tissue was homogenized in […]. Samples were then clarified by centrifugation. Next, 25 μl of the brain homogenate supernatant or 25 μl of plasma were combined with 25 μl of acetonitrile:water (95/5). […] Between 20 and 30 μl sample was injected for analysis. […] When Compound B was analyzed, Compound A was used as internal standard (150.1/130.1). For calculating drug concentrations, raw data for plasma (ng/mL) and brain (ng/g) was converted to nM using the molecular weight of respective compounds and assuming 1 g of tissue is equivalent to 1 mL volume. Concentration as a function of time was plotted in GraphPad Prism version 4.02.

[5] = brain, 10 mg/kg (free base equivalent) p.o.
[6] = spleen, 10 mg/kg (free base equivalent) p.o.
[7] = mice, nine p.o. doses over 2 weeks, result in words

Structure (SMILES): OC[C@H]1CNC[C@@H](O)[C@@H]1O [IFG, (3R,4R,5R)-5-(hydroxymethyl)-3,4-piperidinediol]
Concentration in GCase assays after dilution (value in parenthesis) ([1]; brain sample, 10 mg/kg p.o.): 0.2 nM
Concentration in GCase assays after dilution (value in parenthesis) ([1]; brain sample, 100 mg/kg p.o., 100 mg/kg): 0.7 nM and 1.1 nM
Concentration ([1]; brain, 10 mg/kg p.o.): 49 ± 2.4 nM
Concentration ([1]; brain, 100 mg/kg p.o., 100 mg/kg): 182 ± 13 nM and 287 ± 74 nM
Concentration ([1]; plasma, 10 mg/kg p.o.): 67 ± 10 nM
Concentration in GCase assays after dilution (value in parenthesis) ([1]; spleen sample, 10 mg/kg p.o.): 0.5 nM
Concentration in GCase assays after dilution (value in parenthesis) ([1]; spleen sample, 100 mg/kg p.o., 100 mg/kg): 2.6 nM and 4.2 nM
Concentration ([1]; spleen, 10 mg/kg p.o.): 150 ± 12 nM
Concentration ([1]; spleen, 100 mg/kg p.o., 100 mg/kg): 711 ± 100 nM and 1139 ± 220 nM
GCase increase (GCase [2]; [5]): 1.5 -fold
GCase increase (GCase [2]; brain, 100 mg/kg (free base equivalent) p.o., 100 mg/kg): 2.2 -fold and 2.1 -fold
GCase increase (GCase [2]; [6]): 1.6 -fold
GCase increase (GCase [2]; spleen, 100 mg/kg (free base equivalent) p.o., 100 mg/kg): 1.9 -fold and 2.0 -fold

melting point: 200 to 202 °C
In Situ Washout (lysosomal GCase): 6.6 ± 0.12 h
Structure (SMILES): Cl.O[C@@H]1[C@H](CF)CNC[C@H]1O [Compound A-HCl, (3R,4R,5R)-5-(fluoromethyl)piperidine-3,4-diol hydrochloride]
GCase enhancement at lower doses compared to IFG-tartrate (GCase [2]; [7]): unexpectedly greater than that observed with IFG-tartrate even when far lower doses
GCase enhancement in brain, spleen, liver and lung compared to control or IFG-tartrate (GCase [2]; [7]): statistically significant greater GCase enhancement in brain, spleen, liver and lung as compared to mice administered control or IFG-tartrate
effect on GCase activity (GCase [3]): concentration-dependent increase in GCase activity
enhancement of enzyme activity compared to IFG-tartrate (GCase [3]): enhanced enzyme activity to the same maximum level at much lower concentration

Concentration in GCase assays after dilution (value in parenthesis) ([1]; brain sample, 10 mg/kg p.o.): 0.5 nM
Concentration in GCase assays after dilution (value in parenthesis) ([1]; brain sample, 100 mg/kg p.o.): 3 nM
Concentration in GCase assays after dilution (value in parenthesis) ([1]; spleen sample, 10 mg/kg p.o.): 0.3 nM
Concentration in GCase assays after dilution (value in parenthesis) ([1]; spleen sample, 100 mg/kg p.o.): 1.1 nM
GCase increase (GCase [2]; [5]): 2.5 -fold
GCase increase (GCase [2]; brain, 100 mg/kg (free base equivalent) p.o.): 3.5 -fold
GCase increase (GCase [2]; [6]): 1.9 -fold
GCase increase (GCase [2]; spleen, 100 mg/kg (free base equivalent) p.o.): 2.8 -fold
Structure (SMILES): O[C@@H]1[C@H](CF)CNC[C@H]1O [Compound A, (3R,4R,5R)-5-(fluoromethyl)piperidine-3,4-diol]
blood brain barrier crossing compared to IFG [4]: crossed the blood brain barrier more readily as compared to IFG
